Literature values, collected in patent publication US6696084B2 (RTP Pharma Inc., priority 2000, dated 2004).

Experiments:
[1] = oral administration with or without food

solubility in acetone	solubility in ethanol	solubility in methanol	solubility in water	solubility in acetonitrile	solubility in chloroform (chloroform)	solubility in ether (ether)	solubility in isopropanol (isopropanol)	SMILES	food effect on absorption / uptake [1]
very slightly soluble	soluble	soluble	soluble					COCc1c(C(C)C)nc(C(C)C)c(/C=C/[C@@H](O)C[C@@H](O)CC(=O)O)c1-c1ccc(F)cc1 [Cerivastatin]	not sensitive to a food effect
	soluble	soluble	soluble					CC(C)n1c(/C=C/C(O)CC(O)CC(=O)O)c(-c2ccc(F)cc2)c2ccccc21 (stereo not drawn) [Fluvastatin]	reduces the rate but not the extent of absorption
	sparingly soluble	sparingly soluble	insoluble	sparingly soluble				CC[C@H](C)C(=O)O[C@H]1C[C@@H](C)C=C2C=C[C@H](C)[C@H](CC[C@@H]3C[C@@H](O)CC(=O)O3)[C@H]21 [Lovastatin]	
practically insoluble				practically insoluble	practically insoluble	practically insoluble	slightly soluble	CC[C@H](C)C(=O)O[C@H]1C[C@H](O)C=C2C=C[C@H](C)[C@H](CC[C@@H](O)C[C@@H](O)CC(=O)O)[C@H]21 [Pravastatin]	
